# Key:
# [1] = Comparison of stability between crystal forms and amorphous form, 60° C. uncovered, relevant substances by HPLC; assay type: physicochemical
# Method: Instrument: High Performance Liquid Chromatographic Instrument (Agilent 1260 series) Chromatographic column: chromatographic column using octylsilane chemically bonded silica as filler (HC-C8, 4.6×250 mm, 5 μm) Column temperature: 30° C. Detection wavelength: 230 nm Mobile phase: Mobile phase consisting of 0.06 mol/L sodium dihydrogen phosphate/0.06 mol/L sodium perchlorate solution-acetonitrile, and reversed-phase gradient elution was employed. Flow rate: 1.0 mL/min Injection volume: 10 μL
# [2] = Evaluation on pharmacokinetics in SD rats, intragastric administration; assay type: in vivo; conditions: 5 mg/kg
# Method: An amorphous form of a compound of Formula (I), the preparation method of which could be found in the particular Examples as disclosed in the international patent application (Publication No. WO 2012027960 A1).
# Test animal: SD rats, male, weighed 190-250 g, 6 rats for each crystal form, purchased from Beijing Vital River Laboratory Animal Technology Co., Ltd.
# Administration route: intragastric administration, at an administration dose of 5 mg/kg, and an administration volume of 10 mL/kg.
# Blood collection: whole blood (about 100 μL) was collected from tail vein 10 min, 30 min, 1 h, 2 h, 4 h, 6 h, 8 h, and 24 h after administration, and added to K2EDTA-containing anticoagulation tubes. The whole blood sample was centrifuged for 6 min at 4° C., 8000 rpm in a high speed centrifuge, and plasma was separated. Plasma needed to be prepared within 30 min after blood collection, and stored at −80° C. in a refrigerator.
# Plasma sample analysis: the plasma samples were analyzed by protein precipitation: to plasma (20 μL), an internal standard Gefitinib (200 μL, 50 ng/mL acetonitrile solution) was added; the resultant mixture was vortexed at 500 rpm for 5 min, and centrifuged at 4000 rpm for 20 min in a high speed centrifuge; to the supernatant (100 μL), water (100 μL) was added; the resultant mixture was mixed homogeneously under vortexing and analyzed by LC-MS/MS for blood concentration.
# Calculation for PK parameters: PK parameters were calculated by using Pharsight Phoenix 6.2 software.
smiles,measurement,setting,value
"C=CC(=O)Nc1cc2c(Nc3ccc(F)c(Cl)c3)ncnc2cc1OCC1CC2(CCN(C)CC2)C1 [Amorphous form, N-(4-((3-chloro-4-fluorophenyl)amino)-7-((7-methyl-7-azaspiro[3.5]nonan-2-yl)methoxy)quinazolin-6-yl)acrylamide]",Total relevant substances,[1]; 0 day,1.1%
same,Change in total relevant substances (conclusion),"[1]; 60° C. uncovered, 5 days and 10 days",rapid increase in total relevant substances
same,Increase of total relevant substances,"[1]; 60° C. uncovered, 5 days vs Day 0",1.3%
same,Increase of total relevant substances,"[1]; 60° C. uncovered, 10 days vs Day 0",2.1%
same,Total relevant substances,[1]; 60° C. uncovered-5 days,2.4%
same,Total relevant substances,[1]; 60° C. uncovered-10 days,3.2%
same,"Cmax and exposure amount (AUC) compared with Crystal form I, II and III",[2],significantly lower
same,"In vivo half-life compared with Crystal form I, II and III",[2],shorter
same,AUC(0-inf),"[2]; male, SD, rat, plasma, po, suspension in water",1150 ng·h/mL
same,AUC0-t,"[2]; male, SD, rat, plasma, po, suspension in water, read-out: AUC0-t",1140 ng·h/mL
same,Cmax,"[2]; male, SD, rat, plasma, po, suspension in water, read-out: Cmax (maximum blood concentration)",105 ng/mL
same,half-life,"[2]; male, SD, rat, plasma, po, suspension in water, read-out: T1/2 (drug elimination half-life) (converted)",3.08 h
same,Tmax,"[2]; male, SD, rat, plasma, po, suspension in water, read-out: Tmax (time to maximum blood concentration)",4 h

# Reference: patent US10689359B2, “Crystals of quinazoline derivative and preparation method therefor” (Xuanzhu Pharma Co., Ltd., priority 2015, dated 2020)
